Test results: PMC11284788, “NN1213 – A Potent, Long-Acting, and Selective Analog of Human Amylin” (Journal of Medicinal Chemistry, 2024)
Where two headings read alike, the source gives them in different places. Numbered stars: 1 amine (or outer) side, 2 acyl side, 3 side chain; on linkers, the order of the positions; unused ones are H or OH. Bridge positions count the residues as written; N and C are the ends. Side chains are listed from the residue outwards. Peptide text beside a SMILES is read from it. * marks the point of attachment. C20 diacid = O=C(O)CCCCCCCCCCCCCCCCCCC(=O)*; γGlu = O=C(O)[C@H](CCC(=O)[*:2])N[*:1]

Assays:
rCTR = target: T1, rCTR (Rattus norvegicus, UniProt P32214); assay: scintillation proximity binding assay, rCTR membranes
T1 construct: expressed in transfected cells; host or cells: BHK tk-ts 13, transient (FuGENE 6)
T1 sequence (P32214 25-479 isoform P32214-2 limits assumed): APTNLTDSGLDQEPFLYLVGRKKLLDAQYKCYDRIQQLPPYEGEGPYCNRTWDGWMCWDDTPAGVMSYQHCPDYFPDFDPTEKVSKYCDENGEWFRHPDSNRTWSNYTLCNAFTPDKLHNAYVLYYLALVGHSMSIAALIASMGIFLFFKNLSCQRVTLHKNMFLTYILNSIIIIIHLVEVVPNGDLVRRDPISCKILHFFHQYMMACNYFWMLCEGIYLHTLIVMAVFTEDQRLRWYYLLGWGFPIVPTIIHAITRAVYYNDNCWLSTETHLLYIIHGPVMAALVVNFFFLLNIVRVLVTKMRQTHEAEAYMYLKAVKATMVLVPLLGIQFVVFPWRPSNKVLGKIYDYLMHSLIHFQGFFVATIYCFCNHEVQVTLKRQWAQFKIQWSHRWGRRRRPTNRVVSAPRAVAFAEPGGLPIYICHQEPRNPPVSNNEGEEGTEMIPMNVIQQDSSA
Experimental: (§1) The apparent binding affinities were determined using a scintillation proximity assay with beads from PerkinElmer and cell membranes containing the AMY3R or CTRs. […] Membranes were harvested and membranes were prepared and kept at −80 °C until use. The assay was performed in a 384-well Optiplate (PerkinElmer). Membranes were mixed with scintillation proximity assay beads in a 1:1 ratio. […] Samples were analyzed on a TopCounter (Packard). The IC50 values were calculated using GraphPad Prism. See Supporting Information S7: SAR Screening Assay Methods (Binding Assays (Human and Rat)) for more information.
(§2) Binding Assays (Human and Rat). Brief descriptions of the methods used to determine binding affinities for SAR analysis are described below. Curves and IC50 values were plotted and calculated in GraphPad Prism using nonlinear regression (one site binding competition analysis), with pIC50 values […]
(§3) values were used to calculate the binding affinity ratios in order to express the selectivity of compounds for the AMY3R versus the CTR.
(§4) CTR Binding Assay. The binding assay was performed using scintillation proximity assay (SPA) beads (RPNQ0001) from PerkinElmer and cell membranes containing either the hCTR or rCTR. BHK […]
(§5) Membranes were prepared in the following way: the cells were rinsed with PBS and incubated with Versene for approximately 5 min before harvesting. The cells were flushed with PBS and the cell-suspension was centrifuged for 5 min at 1000 rpm. Cells were homogenized (Ultra Turrax) in a buffer […]
(§6) containing 20 mM Na-HEPES and 0.1 mM EDTA (pH 7.4, buffer 2). The resulting pellet was re-suspended in buffer 2 and protein concentration was measured (BCA protein assay, Pierce). The homogenate was kept cold during the whole procedure. The membranes were stored at –80 °C until […]
(§7) The binding assay was performed in a 384-well Optiplate (PerkinElmer) in a total volume of 40 μL.
(§8) Membranes were mixed with SPA beads in a 1:1 ratio. […]
(§9) mg/well. Test compounds were dissolved in DMSO and further diluted in assay buffer (50 mM HEPES, pH 7.4, 1 mM CaCl2, 5 mM MgCl2, 0.1% ovalbumin, and 0.02% Tween-20).
(§10) Calcitonin (NEX422 PerkinElmer) was dissolved in assay buffer and added to the Optiplate at a final […]
(§11) prior to centrifugation (1500 rpm, 10 min). Samples were analyzed on TopCounter (Packard).

hCTR = target: T2, hCTR (Homo sapiens, UniProt P30988); assay: scintillation proximity binding assay, hCTR membranes; set-up: expressed in transfected cells; host or cells: BHK tk-ts 13, transient (FuGENE 6); membranes for the SPA, whole cells for the species-specific assays
T2 sequence (P30988 25-474): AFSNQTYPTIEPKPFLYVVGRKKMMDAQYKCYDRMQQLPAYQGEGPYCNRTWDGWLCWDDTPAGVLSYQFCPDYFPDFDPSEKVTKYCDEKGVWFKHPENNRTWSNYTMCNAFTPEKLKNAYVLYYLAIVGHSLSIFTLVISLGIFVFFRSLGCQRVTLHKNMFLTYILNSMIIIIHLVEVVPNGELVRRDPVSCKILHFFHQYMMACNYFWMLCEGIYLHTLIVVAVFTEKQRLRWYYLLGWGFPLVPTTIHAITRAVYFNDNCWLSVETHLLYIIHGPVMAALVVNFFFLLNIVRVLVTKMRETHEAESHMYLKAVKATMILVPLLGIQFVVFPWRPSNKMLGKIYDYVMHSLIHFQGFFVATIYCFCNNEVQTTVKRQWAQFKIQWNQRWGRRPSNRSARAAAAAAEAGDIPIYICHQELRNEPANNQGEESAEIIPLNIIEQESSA
Experimental: as §1, §2, §3, §4, §5, §6, §7, §8, §9, §10, §11

[1] = SPA binding assay, Tables S13 and S15
[2] = SPA binding assay, Tables S13 and S15, read-out: rCTR pIC50 (converted)
[3] = SPA, BHK cell membranes, 125I-Calcitonin 75 pM, 120 min 25 °C, read-out: rCTR IC50
[4] = SPA binding assay, Tables S13 and S15, read-out: hCTR pIC50 (converted)
[5] = SPA, BHK cell membranes, 125I-Calcitonin 75 pM, 120 min 25 °C, read-out: hCTR IC50

| rCTR pIC50 (rCTR; [1]) | hCTR pIC50 (hCTR; [1]) | IC50 (rCTR; [2]) | IC50 (rCTR; [3]) | IC50 (hCTR; [4]) | IC50 (hCTR; [5]) | Structure (SMILES) |
| --- | --- | --- | --- | --- | --- | --- |
| 7.02 | 7.71 | – | – | – | – | CC[C@H](C)[C@H](NC(=O)[C@H](C)NC(=O)CNC(=O)[C@H](Cc1ccccc1)NC(=O)[C@H](CC(N)=O)NC(=O)[C@@H]1CCCN1C(=O)[C@H](CO)NC(=O)[C@H](CO)NC(=O)[C@H](Cc1c[nH]cn1)NC(=O)[C@H](CCCNC(=N)N)NC(=O)[C@H](CC(C)C)NC(=O)[C@H](Cc1ccccc1)NC(=O)[C@H](CC(N)=O)NC(=O)[C@H](C)NC(=O)[C@H](CC(C)C)NC(=O)[C@H](CCCNC(=N)N)NC(=O)[C@H](CCC(N)=O)NC(=O)[C@@H](NC(=O)[C@H](C)NC(=O)[C@@H]1CSSC[C@H](NC(=O)[C@H](CCCCN)NC(=O)CC[C@H](NC(=O)CCCCCCCCCCCCCCCCCCC(=O)O)C(=O)O)C(=O)N[C@@H](CC(N)=O)C(=O)N[C@@H]([C@@H](C)O)C(=O)N[C@@H](C)C(=O)N[C@@H]([C@@H](C)O)C(=O)N1)[C@@H](C)O)C(=O)N1CCC[C@H]1C(=O)N[C@@H](CO)C(=O)N[C@@H](CO)C(=O)N[C@H](C(=O)N[C@@H](CC(N)=O)C(=O)N[C@H](C(=O)NCC(=O)N[C@@H](CCCNC(=N)N)C(=O)N[C@@H](CC(N)=O)C(=O)N[C@H](C(=O)N[C@@H](Cc1ccc(O)cc1)C(N)=O)[C@@H](C)O)C(C)C)[C@@H](C)O [Peptide 16] |
| – | – | 355 nM | 356 nM | 74.1 nM | 74.1 nM | CC[C@H](C)[C@H](NC(=O)[C@@H]1CCCN1C(=O)CNC(=O)[C@H](Cc1ccccc1)NC(=O)[C@H](CC(N)=O)NC(=O)[C@@H]1CCCN1C(=O)[C@H](CO)NC(=O)[C@H](CO)NC(=O)[C@H](Cc1c[nH]cn1)NC(=O)[C@H](CCCNC(=N)N)NC(=O)[C@H](CC(C)C)NC(=O)[C@H](Cc1ccccc1)NC(=O)[C@H](CC(=O)O)NC(=O)[C@H](C)NC(=O)[C@H](CC(C)C)NC(=O)[C@H](CCCNC(=N)N)NC(=O)[C@H](CCC(N)=O)NC(=O)[C@@H](NC(=O)[C@H](C)NC(=O)[C@@H]1CSSC[C@H](NC(=O)[C@@H](N)CCCCNC(=O)CC[C@H](NC(=O)CC[C@H](NC(=O)CCCCCCCCCCCCCCCCCCC(=O)O)C(=O)O)C(=O)O)C(=O)N[C@@H](CC(N)=O)C(=O)N[C@@H]([C@@H](C)O)C(=O)N[C@@H](C)C(=O)N[C@@H]([C@@H](C)O)C(=O)N1)[C@@H](C)O)C(=O)N[C@@H](CC(C)C)C(=O)N[C@@H](CO)C(=O)N[C@@H](CO)C(=O)N[C@H](C(=O)N[C@@H](CC(N)=O)C(=O)N[C@H](C(=O)NCC(=O)N[C@@H](CO)C(=O)N[C@@H](CC(=O)O)C(=O)N[C@H](C(=O)N[C@@H](Cc1ccc(O)cc1)C(N)=O)[C@@H](C)O)C(C)C)[C@@H](C)O [Peptide 3] (H-K([γGlu-γGlu-C20 diacid])CNTATCATQRLADFLRHSSPNFGPILSSTNVGSDTY-NH2; disulfide 2-7) |
| 8.22 | 8.96 | – | – | – | – | CC[C@H](C)[C@H](NC(=O)[C@H](C)NC(=O)CNC(=O)[C@H](Cc1ccccc1)NC(=O)[C@H](CC(N)=O)NC(=O)[C@@H]1CCCN1C(=O)[C@H](CO)NC(=O)[C@H](CO)NC(=O)[C@H](Cc1c[nH]cn1)NC(=O)[C@H](CCCNC(=N)N)NC(=O)[C@H](CC(C)C)NC(=O)[C@H](Cc1ccccc1)NC(=O)[C@H](CCC(=O)O)NC(=O)[C@H](C)NC(=O)[C@H](CC(C)C)NC(=O)[C@H](CCCNC(=N)N)NC(=O)[C@H](CCC(N)=O)NC(=O)[C@@H](NC(=O)[C@H](C)NC(=O)[C@@H]1CSSC[C@H](NC(=O)[C@H](CCCCN)NC(=O)CC[C@H](NC(=O)CCCCCCCCCCCCCCCCCCC(=O)O)C(=O)O)C(=O)N[C@@H](CC(N)=O)C(=O)N[C@@H]([C@@H](C)O)C(=O)N[C@@H](C)C(=O)N[C@@H]([C@@H](C)O)C(=O)N1)[C@@H](C)O)C(=O)N1CCC[C@H]1C(=O)N[C@@H](CO)C(=O)N[C@@H](CO)C(=O)N[C@H](C(=O)N[C@@H](CC(N)=O)C(=O)N[C@H](C(=O)NCC(=O)N1CCC[C@H]1C(=O)N[C@@H](CC(N)=O)C(=O)N[C@H](C(=O)N[C@@H](Cc1ccc(O)cc1)C(N)=O)[C@@H](C)O)C(C)C)[C@@H](C)O [Peptide 12] ({C20 diacid-γGlu}-KCNTATCATQRLAEFLRHSSPNFGAIPSSTNVGPNTY-NH2; disulfide 2-7) |
| – | – | 105 nM | 106 nM | 30.2 nM | 30.2 nM | CC(C)C[C@H](NC(=O)[C@H](CCCNC(=N)N)NC(=O)[C@H](CCC(N)=O)NC(=O)[C@@H](NC(=O)[C@H](C)NC(=O)[C@@H]1CSSC[C@H](NC(=O)[C@@H](N)CCCCNC(=O)CC[C@H](NC(=O)CC[C@H](NC(=O)CCCCCCCCCCCCCCCCCCC(=O)O)C(=O)O)C(=O)O)C(=O)N[C@@H](CC(N)=O)C(=O)N[C@@H]([C@@H](C)O)C(=O)N[C@@H](C)C(=O)N[C@@H]([C@@H](C)O)C(=O)N1)[C@@H](C)O)C(=O)N[C@@H](C)C(=O)N[C@@H](CC(=O)O)C(=O)N[C@@H](Cc1ccccc1)C(=O)N[C@@H](CC(C)C)C(=O)N[C@@H](CCCNC(=N)N)C(=O)N[C@@H](Cc1c[nH]cn1)C(=O)N[C@@H](CO)C(=O)N[C@@H](CO)C(=O)N1CCC[C@H]1C(=O)N[C@@H](CC(N)=O)C(=O)N[C@@H](Cc1ccccc1)C(=O)NCC(=O)N[C@@H](C)C(=O)N1CCC[C@H]1C(=O)N[C@@H](CC(C)C)C(=O)N[C@@H](CO)C(=O)N[C@@H](CO)C(=O)N[C@H](C(=O)N[C@@H](CC(N)=O)C(=O)N[C@H](C(=O)NCC(=O)N[C@@H](CO)C(=O)N[C@@H](CC(=O)O)C(=O)N[C@H](C(=O)N[C@@H](Cc1ccc(O)cc1)C(N)=O)[C@@H](C)O)C(C)C)[C@@H](C)O [Peptide 5] (H-K([γGlu-γGlu-C20 diacid])CNTATCATQRLADFLRHSSPNFGAPLSSTNVGSDTY-NH2; disulfide 2-7) |
| – | 7.71 | – | – | – | 19.5 nM | CC[C@H](C)[C@H](NC(=O)[C@H](C)NC(=O)CNC(=O)[C@H](Cc1ccccc1)NC(=O)[C@H](CC(N)=O)NC(=O)[C@@H]1CCCN1C(=O)[C@H](CO)NC(=O)[C@H](CO)NC(=O)[C@H](Cc1c[nH]cn1)NC(=O)[C@H](CCCNC(=N)N)NC(=O)[C@H](CC(C)C)NC(=O)[C@H](Cc1ccccc1)NC(=O)[C@H](CC(=O)O)NC(=O)[C@H](C)NC(=O)[C@H](CC(C)C)NC(=O)[C@H](CCCNC(=N)N)NC(=O)[C@H](CCC(N)=O)NC(=O)[C@@H](NC(=O)[C@H](C)NC(=O)[C@@H]1CSSC[C@H](NC(=O)[C@@H](N)CCCCNC(=O)CC[C@H](NC(=O)CC[C@H](NC(=O)CCCCCCCCCCCCCCCCCCC(=O)O)C(=O)O)C(=O)O)C(=O)N[C@@H](CC(N)=O)C(=O)N[C@@H]([C@@H](C)O)C(=O)N[C@@H](C)C(=O)N[C@@H]([C@@H](C)O)C(=O)N1)[C@@H](C)O)C(=O)N1CCC[C@H]1C(=O)N[C@@H](CO)C(=O)N[C@@H](CO)C(=O)N[C@H](C(=O)N[C@@H](CC(N)=O)C(=O)N[C@H](C(=O)NCC(=O)N[C@@H](CO)C(=O)N[C@@H](CC(=O)O)C(=O)N[C@H](C(=O)N[C@@H](Cc1ccc(O)cc1)C(N)=O)[C@@H](C)O)C(C)C)[C@@H](C)O [Peptide 6] (H-K([γGlu-γGlu-C20 diacid])CNTATCATQRLADFLRHSSPNFGAIPSSTNVGSDTY-NH2; disulfide 2-7) |
